Key:
[1] = qIT (quantitative irreversible tethering) thiol consumption assay with glutathione; conditions: compound 0.5 mM, glutathione 5 μM, TCEP-agarose 2 % w/v
Protocol: To measure the kinetics of electrophile‐thiol conjugation we developed quantitative irreversible tethering (qIT), a technique which employs fluorogenic thiol quantification (FTQ) in a high‐throughput thiol consumption assay (Figure 1 a). […] We solved this problem using an immobilized reducing agent (TCEP‐agarose, 2 % w/v), allowing facile separation by centrifugation before conducting the FTQ step (Figure 1 b).
The target thiol (5 μM) is reacted with electrophilic fragments (0.5 mM) under pseudo‐first‐order conditions in the presence of TCEP‐agarose (2 % w/v). Reaction progress is followed by discrete measurements of residual target thiol concentration using the fluorogenic probe CPM and rate constants are derived from exponential regression analysis. b) TCEP‐agarose prevents aerobic thiol oxidation. Glutathione solutions were stored ±TCEP‐agarose (2 % w/v).
Electrophiles were individually reacted with glutathione under pseudo‐first‐order conditions in the presence of TCEP‐agarose. […] Fluorescence measurements were normalized against a DMSO control and exponential regressions used to determine rate constants.
ReactionBplate" setup:!Each! well! of! a! 96Rwell! PCR! plate! was! charged! with! 60–100! µL! of! target! thiol! (GSH! or! protein,! 10! µM)!
and! 4%! w/v! TCEPRagarose! beads! in! 100! mM! phosphate! buffer! (pH! 7.5! or! 8)! and! cooled! to! 4! ˚C.! Reactions! were! started! by!
addition! of! an! equal! volume! of! preRcooled! electrophile! solution! (1! mM,! 2%! DMSO)! in! 0.1! M! phosphate! buffer! (final! concentraR
tion:! thiol! =! 5! µM,! electrophile! =! 0.5! mM,! 2%! w/v! TCEPRagarose! beads),! with! a! minimum! of! 4! wells! per! plate! used! as!
DMSO/thiol! only! controls.! After! mixing,! TCEPRagarose! was! pelleted! by! centrifugation! (1,300! rpm,! 1! min)! and! the! plate! incuR
bated!at!4!˚C.,CPM"Quench:! At! a! series! of! time! points!

[2] = target: Cdk2(WT) (Homo sapiens, UniProt P24941); assay: In vitro kinase assay (NADH-coupled) of ligand-conjugated pCdk2 with Cyclin A2; type: biochemical; set-up: GST (N, cleaved yes); made in house; host or cells: E. coli Tuner(DE3); conditions: for Kinase activity ± s.e.m relative to Cdk2(WT): n=3
Protocol: Hs!Cyclin!A2!F!5’![…]!
Hs!Cyclin!A2!R!5’![…]!
Sc!CAK1!R!5’!GAATTCttatgggcttttctaattcttgcaag!
GSTBCdk2" and" GSTBcyclin" A2:! Harvested! cells! were! resuspended! in! 50! mM! HEPES! buffer! (pH7.5)! containing! 150! mM! NaCl,!
10!mM!MgCl2,!2!mM!dithiothreitol!(DTT),!0.5!mg!mLR1!lysozyme,!and!0.01%!Triton!XR100!at!4!˚C!and!incubated!for!30!minutes.!
After! sonication! and! centrifugation! (40! min,! 16000! g),! the! supernatant! was! incubated! for! 1! h! with! glutathioneRSepharose!
beads,! washed! with! lysis! buffer! and! the! desired! protein! eluted! with! 10! mM! GSH! (100! mM! Tris,! pH! 8).! After! incubation! the! deR
sired! protein! was! cleaved! from! the! GST! tag! with! PreScission! protease! (100:1)! at! 4 °C! for! 4! hours,! the! cleaved! GST! tag! was!
removed! with! glutathioneRSepharose! beads.! Cdk2! was! concentrated! and! then! loaded! onto! a! Superdex! 75! (16/60)! column,!
eluting! with! 100! mM! phosphate! buffer! containing! 50! mM! DTT.! Purified! Cdk2! was! concentrated! to! 10! mg! mLR1!and! stored! at!–
80! ˚C.! Cyclin! A2! was! purified! by! glutathioneRSepharose! affinity! as! described! above! with! the! following! amendments:! 100! mM!
MgCl2!was! added! after! GST! cleavage! to! minimise! protein! aggregation! and! gel! filtration! was! performed! with! 50! mM! HEPES!
buffer! (pH! 7.5)! containing! 150! mM! NaCl,! 100! mM! MgCl2,! 2! mM! DTT.! ! GSTRCAK1! was! also! purified! using! the! glutathioneR
Sepharose!affinity!workflow,!however!no!protease!or!gel!filtration!steps!were!performed!and!the!enzyme!was!used!crude.!
His6BCdk2:! Cell! lysis! was! performed! as! above! with! the! addition! of! 30! mM! imidiazole! to! the! lysis! buffer.! Following! sonication!
the! supernatant! was! incubated! for! 1! hour! with!nickel! sulfate! charged! NTA! agarose! beads,! washed! with! lysis!buffer! suppleR
mented!with!50!mM!imidiazole!and!then!His6RCdk2!eluted!with!lysis!buffer!containing!500!mM!imidiazole.!After!dialysis!against!
100! mM! phosphate! buffer! (pH! 8)! containing! 1! mM! DTT,! His6RCdk2! was! concentrated! and! loaded! onto! a! Superdex! 75! (16/60)!
column,!eluting!with!100!mM!phosphate!buffer!(pH!8)!without!reducing!agent."
I., Acrylamide, labelling, of, Cdk2, for, crystallography, TdCD, kinase, assays, and, intact%
protein,mass,spectrometry,
Cdk2! (10! µM)! was! reacted! with! acrylamide! ligands! at! 500! µM! in! 100! mM! phosphate! buffer! (pH! 8)! containing! 1%! DMSO,! until!
labelling! reached! completion! (as! monitored! by! fluorescence! quench! assay! and/or! intact! protein! mass! spectrometry).! Excess!
ligand! was! subsequently! removed! by! serial! dilution! and! concentration! (×5)! into! the!appropriate! buffer! using! Amicon! UltraR0.5!
centrifugal!filter!devices!(MW!cutRoff!=!10!kDa).!
J.,Intact%protein,mass,spectrometry, […]

[3] = Cdk2(WT) completely modified with compound

inhibition of kinase activity [2, 3]	Kinase activity ± s.e.m relative to Cdk2(WT) [2, 3]	inhibition of kinase activity (in words) ([2]; Cdk2(WT) modified with compound)	SMILES	k GSH (pseudo-first-order rate constant) [1]
about 83%	16.8±3.1%	–	C=CC(=O)N1CCN(C(=O)OC(C)(C)C)c2ccccc21 [Acrylamide 1]	0.041 h⁻¹
–	96.6±5.6%	no significant inhibition	C=CC(=O)N1CCN(C(=O)OC)c2ccccc21 [Acrylamide 2]	0.089 h⁻¹
